According to US20150352108A1, “AMINO-PYRIMIDINE COMPOUNDS AS INHIBITORS OF TBK1 AND/OR IKK EPSILON” (Alzheimer's Institute of America, priority 2009, published 2015):
Read-outs that look alike come from different tables or passages of the source.

How the values were obtained:
[1] = biological target: T1, IKKε (Homo sapiens, UniProt Q14164); experiment: In-vitro IKKε kinase assay ([γ33]ATP filter-plate); format: biochemical
T1 construct: His-tag; made in house; host or cells: Sf9 insect cells
T1 sequence (Q14164 1-716): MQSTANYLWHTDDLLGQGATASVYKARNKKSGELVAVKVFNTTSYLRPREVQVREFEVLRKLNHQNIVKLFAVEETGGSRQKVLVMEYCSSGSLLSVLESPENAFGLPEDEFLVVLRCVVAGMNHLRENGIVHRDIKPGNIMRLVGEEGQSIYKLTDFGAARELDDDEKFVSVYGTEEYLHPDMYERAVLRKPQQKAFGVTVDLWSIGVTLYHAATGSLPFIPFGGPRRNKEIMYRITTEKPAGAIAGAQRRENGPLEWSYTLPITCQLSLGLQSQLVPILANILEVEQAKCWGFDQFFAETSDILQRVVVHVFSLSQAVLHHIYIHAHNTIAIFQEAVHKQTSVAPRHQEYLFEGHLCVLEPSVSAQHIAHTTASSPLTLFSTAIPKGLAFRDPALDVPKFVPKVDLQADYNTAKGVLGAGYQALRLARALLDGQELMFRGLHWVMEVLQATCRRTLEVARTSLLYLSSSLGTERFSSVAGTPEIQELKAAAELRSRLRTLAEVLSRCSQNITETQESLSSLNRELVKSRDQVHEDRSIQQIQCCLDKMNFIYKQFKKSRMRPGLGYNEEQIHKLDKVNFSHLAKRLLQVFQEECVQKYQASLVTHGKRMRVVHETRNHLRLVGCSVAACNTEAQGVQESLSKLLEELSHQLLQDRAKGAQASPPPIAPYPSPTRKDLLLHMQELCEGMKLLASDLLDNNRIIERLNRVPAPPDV
Outline: (§1)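 His-tagged Sf9-expressed kinases at 0.1 or 0.02 μg/ml (TBK1) and 0.1 or 0.015 μg/ml (IKKε) for normal and sensitized formats, with myelin basic protein or casein substrate. ATP was at 2×Km (60 μM TBK1, 32 μM IKKε) plus 0.3 μCi [γ33]ATP. Reactions ran 30-45 min, were captured on P-81 filters, and counts were normalized to DMSO.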

[2] = biological target: T2, TBK1 (Homo sapiens, UniProt Q9UHD2); experiment: In-vitro TBK1 kinase assay ([γ33]ATP filter-plate); format: biochemical
T2 construct: His-tag; made in house; host or cells: Sf9 insect cells
T2 sequence (Q9UHD2 1-729): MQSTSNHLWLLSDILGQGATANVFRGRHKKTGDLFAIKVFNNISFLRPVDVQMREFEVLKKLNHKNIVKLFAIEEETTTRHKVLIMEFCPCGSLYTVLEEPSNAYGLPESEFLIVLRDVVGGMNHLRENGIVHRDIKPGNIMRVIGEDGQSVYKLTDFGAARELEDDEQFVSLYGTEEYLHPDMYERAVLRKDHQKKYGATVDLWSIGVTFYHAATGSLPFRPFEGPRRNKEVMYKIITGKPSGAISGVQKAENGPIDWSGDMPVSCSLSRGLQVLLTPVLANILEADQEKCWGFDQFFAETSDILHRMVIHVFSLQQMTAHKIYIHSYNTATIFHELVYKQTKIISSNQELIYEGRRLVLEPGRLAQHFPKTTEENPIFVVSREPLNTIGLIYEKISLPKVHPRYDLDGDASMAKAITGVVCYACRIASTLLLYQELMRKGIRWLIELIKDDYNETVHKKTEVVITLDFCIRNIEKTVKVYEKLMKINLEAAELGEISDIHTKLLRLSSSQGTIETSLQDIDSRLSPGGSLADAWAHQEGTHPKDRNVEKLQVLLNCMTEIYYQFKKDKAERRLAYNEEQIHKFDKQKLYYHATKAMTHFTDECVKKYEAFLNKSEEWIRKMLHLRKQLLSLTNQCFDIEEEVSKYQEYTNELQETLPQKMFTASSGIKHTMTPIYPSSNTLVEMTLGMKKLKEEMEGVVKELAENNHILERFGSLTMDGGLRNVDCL
Outline: as §1

[3] = text bins, read-out: IC50 for inhibition of the kinase activity of IKKε
[4] = text bins, read-out: IC50 for inhibition of the kinase activity of TBK1

## COc1cc(Nc2nccc(-c3ccc(OC(C)C)c(C#N)c3)n2)cc(OC)c1OC [Example 33, 2-(Propan-2-yloxy)-5-{2-[(3,4,5-trimethoxyphenyl)amino]pyrimidin-4-yl}benzonitrile]
[1]; [3]
  IC50: < 0.005 µM
[2]; [4]
  IC50: < 0.01 µM

## COc1cc(Nc2nccc(-c3ccc(NC(=O)C(C)C)c(C#N)c3)n2)ccc1N1CCNC(=O)C1 [Example 88, N-[2-Cyano-4-(2-{[3-methoxy-4-(3-oxopiperazin-1-yl)phenyl]amino}pyrimidin-4-yl)phenyl]-2-methylpropanamide]
[1]; [3]
  IC50: < 0.005 µM
[2]; [4]
  IC50: < 0.01 µM

## COc1ccc(-c2ccnc(Nc3ccc(N(C)CC(=O)N(C)C)c(OC)c3)n2)cc1C#N [Example 68, N~2~-(4-{[4-(3-Cyano-4-methoxyphenyl)pyrimidin-2-yl]amino}-2-methoxyphenyl)-N,N,N~2~- trimethylglycinamide]
[1]; [3]
  IC50: < 0.005 µM
[2]; [4]
  IC50: < 0.01 µM

## COc1cc(NC(=O)NC[C@H](C)O)cc(Nc2nccc(-c3ccc(OC)c(C#N)c3)n2)c1 [compound 359, 1-(3-{[4-(3-Cyano-4-methoxyphenyl)pyrimidin-2-yl]amino}-5-methoxyphenyl)-3-[(2S)-2-hydroxypropyl]urea]
[1]; [3]
  IC50: 0.005 to 0.05 µM
[2]; [4]
  IC50: 0.01 to 0.1 µM

## CC(=O)Nc1ccc(-c2ccnc(Nc3ccc(N4CCOCC4)cc3)n2)cc1C#N [Example 117, N-[2-Cyano-4-(2-{[4-(morpholin-4-yl)phenyl]amino}pyrimidin-4-yl)phenyl]acetamide]
[1]; [3]
  IC50: 0.005 to 0.05 µM
[2]; [4]
  IC50: 0.01 to 0.1 µM

## COc1cc(Nc2nccc(-c3ccc(OC4CCN(S(C)(=O)=O)CC4)c(C#N)c3)n2)ccc1N1CCOCC1 [Example 79, 5-(2-{[3-methoxy-4-(morpholin-4-yl)phenyl]amino}pyrimidin-4-yl)-2-{[1-(methylsulfonyl)piperidin-4-yl]oxy}benzonitrile]
[1]; [3]
  IC50: 0.005 to 0.05 µM
[2]; [4]
  IC50: 0.01 to 0.1 µM

## COc1cc(C#N)cc(-c2ccnc(Nc3ccc(N4CCOCC4)cc3)n2)c1 [Example 241, 3-Methoxy-5-(2-{[4-(morpholin-4-yl)phenyl]amino}pyrimidin-4-yl)benzonitrile]
[1]; [3]
  IC50: 0.005 to 0.05 µM
[2]; [4]
  IC50: 0.01 to 0.1 µM

## COC(=O)c1ccc(Nc2nccc(-c3ccc(OC4CCN(C(=O)[C@H](C)O)CC4)c(C#N)c3)n2)cc1 [compound 342, methyl 4-({4-[3-cyano-4-({1-[(2S)-2-hydroxypropanoyl]piperidin-4-yl}oxy)phenyl]pyrimidin-2-yl}amino)benzoate]
[1]; [3]
  IC50: 0.005 to 0.05 µM
[2]; [4]
  IC50: < 0.01 µM

## COc1cc(NC(=O)NC2CCCC2)cc(Nc2nccc(-c3ccc(OC)c(C#N)c3)n2)c1 [compound 332, 1-(3-{[4-(3-Cyano-4-methoxyphenyl)pyrimidin-2-yl]amino}-5-methoxyphenyl)-3-cyclopentylurea]
[1]; [3]
  IC50: 0.005 to 0.05 µM
[2]; [4]
  IC50: 0.01 to 0.1 µM

## COCCOC1CN(c2cc(Nc3nccc(-c4ccc(OC5CCOCC5)c(C#N)c4)n3)ccc2C)C1 [compound 596, 5-[2-({3-[3-(2-Methoxyethoxy)azetidin-1-yl]-4-methylphenyl}amino)pyrimidin-4-yl]-2-(tetrahydro-2H-pyran-4-yloxy)benzonitrile]
[1]; Table 3, read-out: IKKε IC50
  IC50: 0.0007 µM
[1]; [3]
  IC50: < 0.005 µM
[2]; Table 3, read-out: TBK1 IC50
  IC50: 0.001 µM
[2]; [4]
  IC50: < 0.01 µM

## CC(C)C(=O)Nc1ccc(-c2ccnc(Nc3ccc(CCN4CCOCC4)cc3)n2)cc1C#N [compound 463, N-{2-cyano-4-[2-({4-[2-(morpholin-4-yl)ethyl]phenyl}amino)pyrimidin-4-yl]phenyl}-2-methylpropanamide]
[1]; [3]
  IC50: 0.005 to 0.05 µM
[2]; [4]
  IC50: 0.01 to 0.1 µM

## COc1cc(NC(=O)N[C@H]2CC[C@H](O)CC2)cc(Nc2nccc(-c3ccc(OC)c(C#N)c3)n2)c1 [Example 280, 1-(3-{[4-(3-Cyano-4-methoxyphenyl)pyrimidin-2-yl]amino}-5-methoxyphenyl)-3-(trans-4-hydroxycyclohexyl) urea]
[1]; [3]
  IC50: 0.005 to 0.05 µM
[2]; [4]
  IC50: 0.01 to 0.1 µM

## N#Cc1cc(-c2ccnc(Nc3ccc(N4CCOCC4)c(Cl)c3)n2)ccc1OC1CCOCC1 [compound 374, 5-(2-{[3-chloro-4-(morpholin-4-yl)phenyl]amino}pyrimidin-4-yl)-2-(tetrahydro-2H-pyran-4-yloxy)benzonitrile]
[1]; [3]
  IC50: < 0.005 µM
[2]; [4]
  IC50: < 0.01 µM

## N#Cc1cc(-c2ccnc(Nc3ccc(N4CCOCC4)cc3)n2)ccc1NC(=O)CN [compound 568, N-[2-Cyano-4-(2-{[4-(morpholin-4-yl)phenyl]amino}pyrimidin-4-yl)phenyl] glycinamide]
[1]; [3]
  IC50: 0.005 to 0.05 µM
[2]; [4]
  IC50: 0.01 to 0.1 µM

## CC(C)C(=O)Nc1ccc(-c2ccnc(Nc3ccc(CC(=O)NCCCN4CCOCC4)cc3)n2)cc1C#N [compound 420, N-[2-cyano-4-(2-{[4-(2-{[3-(morpholin-4-yl)propyl]amino}-2-oxoethyl)phenyl]amino}pyrimidin-4-yl)phenyl]-2-methylpropanamide]
[1]; [3]
  IC50: 0.005 to 0.05 µM
[2]; [4]
  IC50: 0.01 to 0.1 µM

## C[C@H](O)C(=O)N1CCC(Oc2ccc(-c3ccnc(Nc4ccc(C(=O)N(C)CCN(C)C)cc4)n3)cc2C#N)CC1 [compound 331, 4-({4-[3-cyano-4-({1-[(2S)-2-hydroxypropanoyl]piperidin-4-yl}oxy)phenyl]pyrimidin-2-yl}amino)-N-[2-(dimethylamino)ethyl]-N-methylbenzamide]
[1]; [3]
  IC50: < 0.005 µM
[2]; [4]
  IC50: < 0.01 µM

## COc1cc(NC(=O)N2CC[C@@H](O)C2)cc(Nc2nccc(-c3ccc(OC)c(C#N)c3)n2)c1 [compound 378, (3R)-N-(3-{[4-(3-Cyano-4-methoxyphenyl)pyrimidin-2-yl]amino}-5-methoxyphenyl)-3-hydroxypyrrolidine-1-carboxamide]
[1]; [3]
  IC50: 0.005 to 0.05 µM
[2]; [4]
  IC50: 0.01 to 0.1 µM

## CCN(CC)CCN(CC)S(=O)(=O)Cc1ccc(Nc2nccc(-c3ccc(OC4CCOCC4)c(C#N)c3)n2)cc1 [compound 412, 1-[4-({4-[3-Cyano-4-(tetrahydro-2H-pyran-4-yloxy)phenyl]pyrimidin-2-yl}amino)phenyl]-N-[2-(diethylamino)ethyl]-N-ethylmethane-sulfonamide]
[1]; [3]
  IC50: 0.005 to 0.05 µM
[2]; [4]
  IC50: 0.01 to 0.1 µM

## N#Cc1cc(-c2ccnc(Nc3ccc(N4CCOCC4)cc3)n2)ccc1OCCCN [compound 447, 2-(3-Aminopropoxy)-5-(2-{[4-(morpholin-4-yl)phenyl]amino}pyrimidin-4-yl)benzonitrile]
[1]; [3]
  IC50: 0.005 to 0.05 µM
[2]; [4]
  IC50: 0.01 to 0.1 µM

## COc1ccc(Nc2nccc(-c3ccc(OC)c(C#N)c3)n2)cc1Cl [compound 327, 5-{2-[(3-Chloro-4-methoxyphenyl)amino]pyrimidin-4-yl}-2-methoxybenzonitrile]
[1]; [3]
  IC50: 0.005 to 0.05 µM
[2]; [4]
  IC50: 0.01 to 0.1 µM

## N#Cc1cc(-c2ccnc(Nc3ccccc3)n2)ccc1OC1CCOCC1 [Example 12]
[1]; [3]
  IC50: 0.005 to 0.05 µM
[2]; [4]
  IC50: 0.01 to 0.1 µM

## COc1ccc(-c2ccnc(Nc3cccc(S(N)(=O)=O)c3)n2)cc1C#N [compound 346, 3-{[4-(3-Cyano-4-methoxyphenyl)pyrimidin-2-yl]amino} benzenesulfonamide]
[1]; [3]
  IC50: 0.005 to 0.05 µM
[2]; [4]
  IC50: 0.01 to 0.1 µM

## COCCNC(=O)c1ccc(Nc2nccc(-c3ccc(NC(=O)C4CC4)c(C#N)c3)n2)cc1OC [compound 558, 4-[(4-{3-Cyano-4-[(cyclopropylcarbonyl)amino]phenyl}pyrimidin-2-yl)amino]-2-methoxy-N-(2-methoxyethyl) benzamide]
[1]; [3]
  IC50: < 0.005 µM
[2]; [4]
  IC50: < 0.01 µM

## N#Cc1cc(-c2ccnc(Nc3ccc(N4CCOCC4)cc3)n2)ccc1OC1CCN(C(=O)CO)CC1 [Example 190, 2-{[1-(Hydroxyacetyl)piperidin-4-yl]oxy}-5-(2-{[4-(morpholin-4-yl)phenyl]amino}pyrimidin-4-yl)benzonitrile]
[1]; Table 3, read-out: IKKε IC50
  IC50: 0.0004 µM
[1]; [3]
  IC50: < 0.005 µM
[2]; Table 3, read-out: TBK1 IC50
  IC50: 0.0003 µM
[2]; [4]
  IC50: < 0.01 µM
